According to ChEMBL document CHEMBL3885881, “DrugMatrix”:

Species on record: Rattus norvegicus
Assay: DrugMatrix - Regimen: Daily Repeat
Type: toxicity, organism-based, Sprague-Dawley
Parameters: regimen Daily Repeat, gender Male, age 6-8 weeks
Settings: in vivo, po, route oral GAVAGE, vehicle 100 % WATER; for HEMATOCRIT / HEMOGLOBIN / LEUKOCYTE COUNT / MEAN CORPUSCULAR HEMOGLOBIN / MEAN CORPUSCULAR HEMOGLOBIN CONCENTRATION / MEAN CORPUSCULAR VOLUME: tissue Blood; for ALANINE AMINOTRANSFERASE / ALBUMIN / ALKALINE PHOSPHATASE / ASPARTATE AMINOTRANSFERASE / BLOOD UREA NITROGEN / CARBON DIOXIDE / CHLORIDE / CHOLESTEROL / CREATINE PHOSPHOKINASE / CREATININE / LACTATE DEHYDROGENASE / LIPASE / PHOSPHORUS / TOTAL BILIRUBIN / TOTAL PROTEIN / URIC ACID: tissue Plasma
[1] = 0 mg/kg, 72 h, dose level Control, time 3 day
[2] = 0 mg/kg, 120 h, dose level Control, time 5 day
[3] = 58 mg/kg, 72 h, dose level Low, time 3 day
[4] = 58 mg/kg, 120 h, dose level Low, time 5 day

COc1cc2ncnc(Nc3ccc(F)c(Cl)c3)c2cc1OCCCN1CCOCC1 [GEFITINIB]
HEMATOCRIT [1]: 42.62% | HEMOGLOBIN [1]: 13.07 G/DL | LEUKOCYTE COUNT [1]: 13.95 x10E3/uL | MEAN CORPUSCULAR HEMOGLOBIN [1]: 21.47 pg | MEAN CORPUSCULAR HEMOGLOBIN CONCENTRATION [1]: 30.62 G/DL | MEAN CORPUSCULAR VOLUME [1]: 70.05 fL | ALANINE AMINOTRANSFERASE [1]: 47.67 u/L | ALBUMIN [1]: 3.8 G/DL | ALKALINE PHOSPHATASE [1]: 369 u/L | ASPARTATE AMINOTRANSFERASE [1]: 86.17 u/L | BLOOD UREA NITROGEN [1]: 16.33 mg/dL | CARBON DIOXIDE [1]: 37.33 mmol/L | CHLORIDE [1]: 104.83 MEQ/L | CHOLESTEROL [1]: 79.83 mg/dL | CREATINE PHOSPHOKINASE [1]: 392.83 u/L | CREATININE [1]: 0.68 mg/dL | LACTATE DEHYDROGENASE [1]: 426.17 u/L | LIPASE [1]: 11.67 u/L | PHOSPHORUS [1]: 11 mg/dL | TOTAL BILIRUBIN [1]: 0.55 mg/dL | TOTAL PROTEIN [1]: 6.32 G/DL | URIC ACID [1]: 0.0167 mg/dL | HEMATOCRIT [2]: 46.82% | HEMOGLOBIN [2]: 14.23 G/DL | LEUKOCYTE COUNT [2]: 13.43 x10E3/uL | MEAN CORPUSCULAR HEMOGLOBIN [2]: 20.55 pg | MEAN CORPUSCULAR HEMOGLOBIN CONCENTRATION [2]: 30.38 G/DL | MEAN CORPUSCULAR VOLUME [2]: 67.62 fL | ALANINE AMINOTRANSFERASE [2]: 44.67 u/L | ALBUMIN [2]: 3.8 G/DL | ALKALINE PHOSPHATASE [2]: 417.83 u/L | ASPARTATE AMINOTRANSFERASE [2]: 83 u/L | BLOOD UREA NITROGEN [2]: 15.33 mg/dL | CARBON DIOXIDE [2]: 38.83 mmol/L | CHLORIDE [2]: 98.17 MEQ/L | CHOLESTEROL [2]: 66.83 mg/dL | CREATINE PHOSPHOKINASE [2]: 383.17 u/L | CREATININE [2]: 0.72 mg/dL | LACTATE DEHYDROGENASE [2]: 519.67 u/L | LIPASE [2]: 4.83 u/L | PHOSPHORUS [2]: 11.07 mg/dL | TOTAL BILIRUBIN [2]: 0.55 mg/dL | TOTAL PROTEIN [2]: 6.3 G/DL | URIC ACID [2]: 0.0833 mg/dL | HEMATOCRIT [3]: 45.2% | HEMOGLOBIN [3]: 13.93 G/DL | LEUKOCYTE COUNT [3]: 13.22 x10E3/uL | MEAN CORPUSCULAR HEMOGLOBIN [3]: 21.17 pg | MEAN CORPUSCULAR HEMOGLOBIN CONCENTRATION [3]: 30.87 G/DL | MEAN CORPUSCULAR VOLUME [3]: 68.57 fL | ALANINE AMINOTRANSFERASE [3]: 47.67 u/L | ALBUMIN [3]: 3.63 G/DL | ALKALINE PHOSPHATASE [3]: 348 u/L | ASPARTATE AMINOTRANSFERASE [3]: 93.67 u/L | BLOOD UREA NITROGEN [3]: 18 mg/dL | CARBON DIOXIDE [3]: 36.33 mmol/L | CHLORIDE [3]: 108 MEQ/L | CHOLESTEROL [3]: 79.67 mg/dL | CREATINE PHOSPHOKINASE [3]: 307.67 u/L | CREATININE [3]: 0.7 mg/dL | LACTATE DEHYDROGENASE [3]: 373.67 u/L | LIPASE [3]: 10.67 u/L | PHOSPHORUS [3]: 10.37 mg/dL | TOTAL BILIRUBIN [3]: 0.37 mg/dL | TOTAL PROTEIN [3]: 5.97 G/DL | URIC ACID [3]: 0 mg/dL | HEMATOCRIT [4]: 46.33% | HEMOGLOBIN [4]: 14.27 G/DL | LEUKOCYTE COUNT [4]: 14.5 x10E3/uL | MEAN CORPUSCULAR HEMOGLOBIN [4]: 20.73 pg | MEAN CORPUSCULAR HEMOGLOBIN CONCENTRATION [4]: 30.83 G/DL | MEAN CORPUSCULAR VOLUME [4]: 67.23 fL | ALANINE AMINOTRANSFERASE [4]: 52.67 u/L | ALBUMIN [4]: 3.6 G/DL | ALKALINE PHOSPHATASE [4]: 361.67 u/L | ASPARTATE AMINOTRANSFERASE [4]: 94 u/L | BLOOD UREA NITROGEN [4]: 17.33 mg/dL | CARBON DIOXIDE [4]: 35.67 mmol/L | CHLORIDE [4]: 100.33 MEQ/L | CHOLESTEROL [4]: 85.33 mg/dL | CREATINE PHOSPHOKINASE [4]: 299.67 u/L | CREATININE [4]: 0.7 mg/dL | LACTATE DEHYDROGENASE [4]: 423.67 u/L | LIPASE [4]: 5.33 u/L | PHOSPHORUS [4]: 11.87 mg/dL | TOTAL BILIRUBIN [4]: 0.4 mg/dL | TOTAL PROTEIN [4]: 6.07 G/DL | URIC ACID [4]: 0.0333 mg/dL
